# Data from publication PMC7251871, “Construction of reporter gene assays using CWP and PDR mutant yeasts for enhanced detection of various sex steroids” (Genes and Environment, 2020).
# “And” between values parts separate entries of the source, which are not always exact repeats. Identical values can stand only once. Like-named read-outs stand apart in the source and are kept apart here.
# Columns and labels:
# human PR [1] = molecular target: T1, human PR (Homo sapiens, UniProt P06401); test: PR agonist yeast lacZ reporter gene assay; settings: for EC50: EC50, agonist assay
# T1 sequence (P06401 1-933): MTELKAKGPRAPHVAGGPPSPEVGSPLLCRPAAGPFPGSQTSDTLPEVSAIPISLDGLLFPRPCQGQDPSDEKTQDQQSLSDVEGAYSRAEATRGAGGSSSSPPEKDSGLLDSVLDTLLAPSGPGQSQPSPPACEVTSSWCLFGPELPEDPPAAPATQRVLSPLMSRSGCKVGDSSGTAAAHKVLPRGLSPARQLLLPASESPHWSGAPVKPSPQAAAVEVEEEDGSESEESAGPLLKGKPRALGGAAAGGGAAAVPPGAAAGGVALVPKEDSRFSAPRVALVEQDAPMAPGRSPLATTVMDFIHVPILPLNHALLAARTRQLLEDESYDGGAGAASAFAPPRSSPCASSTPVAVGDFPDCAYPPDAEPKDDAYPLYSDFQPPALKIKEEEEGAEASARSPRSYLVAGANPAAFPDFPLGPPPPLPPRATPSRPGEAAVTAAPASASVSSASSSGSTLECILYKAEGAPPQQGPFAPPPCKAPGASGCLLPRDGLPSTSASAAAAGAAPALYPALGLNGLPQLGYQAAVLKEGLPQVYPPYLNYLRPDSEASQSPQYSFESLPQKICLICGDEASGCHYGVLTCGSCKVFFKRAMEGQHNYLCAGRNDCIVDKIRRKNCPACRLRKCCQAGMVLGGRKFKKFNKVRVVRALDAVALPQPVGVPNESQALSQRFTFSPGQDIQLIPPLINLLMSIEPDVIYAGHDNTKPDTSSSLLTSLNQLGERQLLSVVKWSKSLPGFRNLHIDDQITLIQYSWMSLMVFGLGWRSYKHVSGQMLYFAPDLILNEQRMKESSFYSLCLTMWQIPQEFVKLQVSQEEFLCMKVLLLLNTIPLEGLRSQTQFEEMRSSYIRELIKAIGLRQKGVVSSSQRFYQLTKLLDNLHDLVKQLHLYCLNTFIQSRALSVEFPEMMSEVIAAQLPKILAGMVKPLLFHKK
# human AR [2] = molecular target: T2, human AR (Homo sapiens, UniProt P10275); test: AR agonist yeast lacZ reporter gene assay; assay type: cell-based
# T2 sequence (P10275 1-920): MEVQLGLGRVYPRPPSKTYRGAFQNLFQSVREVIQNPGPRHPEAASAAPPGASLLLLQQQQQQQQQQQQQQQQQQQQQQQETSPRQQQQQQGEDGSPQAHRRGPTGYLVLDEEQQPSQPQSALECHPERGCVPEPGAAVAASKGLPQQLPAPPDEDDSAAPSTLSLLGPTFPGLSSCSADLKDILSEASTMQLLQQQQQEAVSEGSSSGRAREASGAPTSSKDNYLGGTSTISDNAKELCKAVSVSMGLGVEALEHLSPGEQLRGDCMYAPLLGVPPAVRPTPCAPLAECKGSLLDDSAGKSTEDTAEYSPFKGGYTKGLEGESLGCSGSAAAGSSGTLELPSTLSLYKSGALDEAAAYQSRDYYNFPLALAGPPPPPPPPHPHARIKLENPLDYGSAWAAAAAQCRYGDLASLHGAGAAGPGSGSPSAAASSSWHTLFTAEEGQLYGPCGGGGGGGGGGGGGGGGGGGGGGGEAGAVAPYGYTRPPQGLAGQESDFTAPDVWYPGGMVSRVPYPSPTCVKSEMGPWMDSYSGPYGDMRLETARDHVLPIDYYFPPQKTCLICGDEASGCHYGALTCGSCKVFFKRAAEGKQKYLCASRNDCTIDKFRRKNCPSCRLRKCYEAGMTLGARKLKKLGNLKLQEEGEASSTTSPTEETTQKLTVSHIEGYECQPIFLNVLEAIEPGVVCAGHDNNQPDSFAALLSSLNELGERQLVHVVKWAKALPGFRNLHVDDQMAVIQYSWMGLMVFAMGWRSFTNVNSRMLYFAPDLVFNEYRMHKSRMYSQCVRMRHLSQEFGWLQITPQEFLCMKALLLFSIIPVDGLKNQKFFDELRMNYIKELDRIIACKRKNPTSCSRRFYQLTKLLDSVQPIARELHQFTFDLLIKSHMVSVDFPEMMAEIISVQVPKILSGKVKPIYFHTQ
# human AR [3] = molecular target: T2, human AR; test: AR antagonist yeast reporter gene assay (competition with testosterone at EC50); assay type: cell-based; settings: with testosterone […] nM
# human ERβ [4] = molecular target: T3, human ERβ (Homo sapiens, UniProt Q92731); test: ERβ agonist yeast lacZ reporter gene assay; assay type: cell-based
# human PR [5] = molecular target: T1, human PR; test: PR antagonist yeast reporter gene assay (competition with PS at EC50); assay type: cell-based; settings: strain cwp1Δpdr5Δ
# human ERβ [6] = molecular target: T3, human ERβ; test: ERβ antagonist yeast reporter gene assay (competition with E2 at EC50); settings: co-exposure with E2; data not shown
# human ERα = molecular target: T4, human ERα (Homo sapiens, UniProt P03372); test: ERα agonist yeast lacZ reporter gene assay; assay type: cell-based; settings: strain cwp1Δcwp2Δ
# T4 sequence (P03372 1-595): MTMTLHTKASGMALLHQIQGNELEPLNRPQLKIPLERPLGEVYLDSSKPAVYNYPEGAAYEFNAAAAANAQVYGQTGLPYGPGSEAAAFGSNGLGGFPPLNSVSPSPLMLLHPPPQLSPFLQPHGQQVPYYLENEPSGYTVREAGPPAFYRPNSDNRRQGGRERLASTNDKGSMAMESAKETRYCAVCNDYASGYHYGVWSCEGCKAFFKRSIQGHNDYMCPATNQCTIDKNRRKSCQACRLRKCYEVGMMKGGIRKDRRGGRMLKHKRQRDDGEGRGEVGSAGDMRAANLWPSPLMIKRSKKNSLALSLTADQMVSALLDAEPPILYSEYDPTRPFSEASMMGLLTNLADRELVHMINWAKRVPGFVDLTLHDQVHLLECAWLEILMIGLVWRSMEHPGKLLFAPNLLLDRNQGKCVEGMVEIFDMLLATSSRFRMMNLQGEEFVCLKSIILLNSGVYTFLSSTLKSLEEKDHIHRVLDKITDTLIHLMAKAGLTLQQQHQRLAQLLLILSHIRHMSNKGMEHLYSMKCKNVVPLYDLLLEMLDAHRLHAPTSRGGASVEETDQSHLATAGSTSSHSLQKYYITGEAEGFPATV
# [7] = agonist assay, strain W303a, read-out: EC50
# [8] = agonist assay, strain cwp1Δcwp2Δ, read-out: EC50
# T3 sequence (Q92731 whole entry): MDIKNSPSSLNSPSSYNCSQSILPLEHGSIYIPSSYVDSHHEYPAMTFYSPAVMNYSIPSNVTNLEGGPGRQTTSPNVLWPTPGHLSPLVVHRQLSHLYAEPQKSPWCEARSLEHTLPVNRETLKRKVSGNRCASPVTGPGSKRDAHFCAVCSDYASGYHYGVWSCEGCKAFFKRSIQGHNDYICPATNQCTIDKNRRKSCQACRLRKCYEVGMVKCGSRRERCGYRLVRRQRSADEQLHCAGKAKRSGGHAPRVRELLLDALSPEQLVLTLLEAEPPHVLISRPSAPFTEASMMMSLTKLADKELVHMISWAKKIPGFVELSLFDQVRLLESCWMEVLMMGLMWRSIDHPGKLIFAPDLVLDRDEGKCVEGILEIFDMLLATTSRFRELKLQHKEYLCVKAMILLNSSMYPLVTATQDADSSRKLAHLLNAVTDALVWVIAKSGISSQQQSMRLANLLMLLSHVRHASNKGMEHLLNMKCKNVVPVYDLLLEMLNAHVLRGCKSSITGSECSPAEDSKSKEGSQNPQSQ
smiles,measurement,setting,value
"C[C@]12CC[C@@H]3c4ccc(O)cc4C[C@@H](CCCCCCCCC[S+]([O-])CCCC(F)(F)C(F)(F)F)[C@H]3[C@@H]1CC[C@@H]2O (some centres unmarked) [ICI, ICI 182, 780]",constitutive β-gal expression in control CYC strains,CYC yeast strains,not repressed
"C[C@]12CCC3=C4CCC(=O)C=C4CC[C@H]3[C@@H]1CC[C@@]2(O)CC#N [DNG, Dienogest]",constitutive expression of β-gal in reference CYC strains,CYC yeast strains,Neither DNG nor DRSP inhibited
same,EC50,human PR [1]; strain cwp1Δcwp2Δ,6.1 µM
same,EC50,human PR [1]; strain cwp1Δpdr5Δ,0.86 µM
same,"androgenic activity, fold weaker than earlier generation progestins with respect to minimal detection limit concentration",human AR [2]; AR-expressing mutant yeast strains,100 fold
same,EC50,human AR [2]; [7],9.78 µM
same,EC50,"human AR [2]; agonist assay, strain cwp1Δpdr5Δ, read-out: EC50",8.1 µM
same,EC50,"human AR [2]; agonist assay, strain pdr5Δpdr10Δ, read-out: EC50",2.43 µM
same,IC50,human AR [3]; strain cwp1Δpdr5Δ,38100 nM
same,IC50,human AR [3]; strain pdr5Δpdr10Δ,30200 nM
"CC#C[C@]1(O)CC[C@H]2[C@@H]3CCC4=CC(=O)CCC4=C3[C@@H](c3ccc(N(C)C)cc3)C[C@@]21C [Mif, mifepristone]",constitutive expression of β-gal in reference CYC strains,CYC yeast strains,not affected
"C[C@]12CC[C@@H]3c4ccc(O)cc4CC[C@H]3[C@@H]1C[C@@H](O)[C@@H]2O [E3, estriol]",EC50,human ERβ [4]; [7],0.034 µM
same,EC50,human ERβ [4]; [8],0.00122 µM
same,Detection limit,human ERβ [4]; strain W303a,0.1 µM
same,Detection limit,human ERβ [4]; strain cwp1Δcwp2Δ,10^−4 μM
"C[C@]12CC[C@H]3[C@@H](CCC4=CC(=O)CC[C@@]43C)[C@@H]1CC[C@@H]2O [TS, Testosterone]",EC50,human PR [1]; strain cwp1Δcwp2Δ,29 µM
same,EC50,human PR [1]; strain cwp1Δpdr5Δ,31 µM
same,EC50,"human ERβ [4]; EC50, agonist assay, strain cwp1Δcwp2Δ",0.87 µM
"C[C@]12C[C@H](O)[C@H]3[C@@H](CCC4=CC(=O)CC[C@@]43C)[C@@H]1CC[C@@H]2C(=O)CO [CS, corticosterone]",EC50,human PR [1]; strain cwp1Δcwp2Δ,20.1 µM
same,EC50,human PR [1]; strain cwp1Δpdr5Δ,18.3 µM
"CC(=O)S[C@@H]1CC2=CC(=O)CC[C@]2(C)[C@H]2CC[C@@]3(C)[C@@H](CC[C@@]34CCC(=O)O4)[C@H]12 [Spi, spironolactone]",Maximum inhibition,human PR [5],34.0%
same,constitutive expression of β-gal in reference CYC strains,CYC yeast strains,not affected
"CC(=O)[C@H]1CC[C@H]2[C@@H]3CCC4=CC(=O)CC[C@]4(C)[C@H]3CC[C@]12C [PS, progesterone]",Detection limit,human PR [1]; strain W303a,10 µM
same,Detection limit,human PR [1]; strain cwp1Δcwp2Δ,0.01 µM
same,Detection limit,human PR [1]; strain cwp1Δpdr5Δ,0.01 µM
"Cc1c(-c2ccc(O)cc2)nn(-c2ccc(O)cc2)c1-c1ccc(OCCN2CCCCC2)cc1.Cl.Cl [MPP, methyl-piperidino-pyrazoledihydrochloride hydrate]",antagonistic activity,human ERβ [6],undetectable
same,EC50,human ERβ [4]; [7],19.2 µM
same,EC50,human ERβ [4]; [8],2.73 µM
"CCCc1c(-c2ccc(O)cc2)nn(-c2ccc(O)cc2)c1-c1ccc(O)cc1 [PPT, propyl pyrazole triol]",fold lower EC50 value for ERα than ERβ,human ERα,2.5 fold
same,fold lower minimum detection limit for ERα than ERβ,human ERα,10 fold
same,EC50,human ERβ [4]; read-out: EC50,13.7 µM and 2.34 µM
"C[C@]12CC[C@@H]3c4ccc(O)cc4CC[C@H]3[C@@H]1CCC2=O [E1, estrone]",EC50,human AR [2]; EC50,0.9 µM and 0.86 µM and 0.096 µM
"C[C@H]1CCC[C@H](O)CCCCCc2cc(O)cc(O)c2C(=O)O1 [Zer, zeranol]",constitutive expression of β-gal in reference CYC strains,CYC yeast strains; CYC W303a and corresponding CYC mutant strains,not affected
"CC(C)C(=O)Nc1ccc([N+](=O)[O-])c(C(F)(F)F)c1 [Flu, flutamide]",constitutive expression of β-gal in reference CYC strains,CYC yeast strains,not affected
"C[C@]12CCC(=O)C=C1[C@@H]1C[C@@H]1[C@H]1[C@@H]3[C@@H]4C[C@@H]4[C@@]4(CCC(=O)O4)[C@@]3(C)CC[C@@H]12 [DRSP, drospirenone]",constitutive expression of β-gal in reference CYC strains,CYC yeast strains,Neither DNG nor DRSP inhibited
"CC/C(=C(\c1ccccc1)c1ccc(OCCN(C)C)cc1)c1ccccc1 [Tam, tamoxifen]",constitutive β-gal expression in control CYC yeasts,CYC yeast strains; 100 μM,less than 60%
"C[C@]12CCC(=O)C=C1CC[C@@H]1[C@@H]2[C@@H](O)C[C@]2(C=O)[C@@H](C(=O)CO)CC[C@@H]12 [AS, aldosterone]",EC50,human PR [1]; strain cwp1Δpdr5Δ,9.7 µM
"C#C[C@]1(O)C=C[C@H]2[C@@H]3CCC4=CC(=O)CC[C@@H]4[C@H]3CC[C@@]21CC [GTD, gestodene]",EC50,human PR [1]; strain W303a,0.22 µM
same,EC50,human PR [1]; strain cwp1Δpdr5Δ,0.000996 µM
same,"androgenic activity, fold weaker than earlier generation progestins with respect to minimal detection limit concentration",human AR [2],10 fold
same,EC50,human AR [2]; EC50,1.06 µM and 0.4 µM
